Source: ChEMBL document CHEMBL6096689, “Structure-Guided Development of ClpP Agonists with Potent Therapeutic Activities against Staphylococcus aureus Infection” (J Med Chem, 2025)
pEC50: −log10 of the molar value. In brackets after ≈: the same amount, converted by molar mass.

Experiments:
[1] = target: T1, ATP-dependent Clp protease proteolytic subunit (Staphylococcus aureus (strain NCTC 8325), UniProt Q2G036); assay: Agonist activity at Staphylococcus aureus ClpP extracted from Escherichia coli BL21 (DE3) cells using alpha-casein as substrate assessed as substrate hydrolysis preincubated for 15 mins followed by substrate addition and measured after 2 hrs by SDS-PAGE analysis
T1 sequence (Q2G036 whole entry): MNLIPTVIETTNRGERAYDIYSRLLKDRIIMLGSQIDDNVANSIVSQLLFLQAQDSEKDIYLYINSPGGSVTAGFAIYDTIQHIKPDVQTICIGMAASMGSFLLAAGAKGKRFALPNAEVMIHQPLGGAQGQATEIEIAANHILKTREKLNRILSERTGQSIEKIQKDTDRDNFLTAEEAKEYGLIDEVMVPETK

Staphylococcus aureus [2] = assay: microbe, parasite or virus in culture; format: functional; settings: Newman, time 18 hrs
Description: Antibacterial activity against Staphylococcus aureus Newman assessed as inhibition of visible growth of bacteria incubated for 18 hrs by absorbance based analysis

Staphylococcus aureus [3] = assay: microbe, parasite or virus in culture; format: functional; settings: time 18 hrs
Description: Antibacterial activity against multidrug-resistant Staphylococcus aureus clinical isolate XJ049 assessed as inhibition of visible growth of bacteria incubated for 18 hrs by absorbance based analysis

Staphylococcus aureus [4] = assay: microbe, parasite or virus in culture; format: functional; settings: NRS-271, time 18 hrs
Description: Antibacterial activity against methicillin-resistant Staphylococcus aureus NRS-271 assessed as inhibition of visible growth of bacteria incubated for 18 hrs by absorbance based analysis

Staphylococcus aureus [5] = assay: microbe, parasite or virus in culture; format: functional; settings: time 18 hrs; remark: listed apart in the source
Description: Antibacterial activity against multidrug-resistant Staphylococcus aureus clinical isolate XJ052 assessed as inhibition of visible growth of bacteria incubated for 18 hrs by absorbance based analysis

Staphylococcus aureus [6] = assay: microbe, parasite or virus in culture; format: functional; settings: NRS-1, time 18 hrs
Description: Antibacterial activity against methicillin-resistant Staphylococcus aureus NRS-1 assessed as inhibition of visible growth of bacteria incubated for 18 hrs by absorbance based analysis

Staphylococcus aureus [7] = assay: microbe, parasite or virus in culture; format: functional; settings: USA300, time 18 hrs
Description: Antibacterial activity against methicillin-resistant Staphylococcus aureus USA300 assessed as inhibition of visible growth of bacteria incubated for 18 hrs by absorbance based analysis

Staphylococcus aureus [8] = assay: microbe, parasite or virus in culture; format: functional; settings: NRS-108, time 18 hrs
Description: Antibacterial activity against methicillin-resistant Staphylococcus aureus NRS-108 assessed as inhibition of visible growth of bacteria incubated for 18 hrs by absorbance based analysis

Staphylococcus aureus [9] = assay: microbe, parasite or virus in culture; format: functional; settings: time 18 hrs; remark: listed apart in the source
Description: Antibacterial activity against multidrug-resistant Staphylococcus aureus clinical isolate XJ051 assessed as inhibition of visible growth of bacteria incubated for 18 hrs by absorbance based analysis

Staphylococcus aureus [10] = assay: microbe, parasite or virus in culture; format: functional; settings: time 18 hrs; remark: listed apart in the source
Description: Antibacterial activity against multidrug-resistant Staphylococcus aureus clinical isolate XJ025 assessed as inhibition of visible growth of bacteria incubated for 18 hrs by absorbance based analysis

Staphylococcus aureus [11] = assay: microbe, parasite or virus in culture; format: functional; settings: time 18 hrs; remark: listed apart in the source
Description: Antibacterial activity against multidrug-resistant Staphylococcus aureus clinical isolate XJ009 assessed as inhibition of visible growth of bacteria incubated for 18 hrs by absorbance based analysis

Staphylococcus aureus [12] = assay: microbe, parasite or virus in culture; format: functional; settings: NRS-70, time 18 hrs
Description: Antibacterial activity against methicillin-resistant Staphylococcus aureus NRS-70 assessed as inhibition of visible growth of bacteria incubated for 18 hrs by absorbance based analysis

Structure (SMILES)	pEC50 [1]	MIC (Staphylococcus aureus [2])	also measured
O=C1[C@H](Cc2ccc(O)cc2)N2C(=O)CCN(C(=O)NCc3ccccc3)[C@H]2CN1Cc1cccc2ccccc12	5.96	16 µg/mL (≈ 29.2 µM)	–
CC(C)C[C@H]1C(=O)N(Cc2cccc3ccccc23)C[C@@H]2N(C(=O)NCc3ccccc3)CCC(=O)N21	5.92	16 µg/mL (≈ 32.1 µM)	–
CC[C@H](C)[C@H]1C(=O)N(Cc2cccc3ccccc23)C[C@@H]2N(C(=O)NCCCCCl)CCC(=O)N12	5.96	4 µg/mL (≈ 8.02 µM)	–
O=C1[C@H](CC2CCCCC2)N2C(=O)CCN(C(=O)NCCCC(F)(F)F)[C@H]2CN1Cc1cccc2ccccc12	5.80	2 µg/mL (≈ 3.58 µM)	–
CCC(C)CNC(=O)N1CCC(=O)N2[C@@H]([C@@H](C)CC)C(=O)N(Cc3cccc4ccccc34)C[C@H]12 (stereo partly specified)	5.74	2 µg/mL (≈ 4.18 µM)	–
CCCC(C)NC(=O)N1CCC(=O)N2[C@@H]([C@@H](C)CC)C(=O)N(Cc3cccc4ccccc34)C[C@H]12 (stereo partly specified)	5.28	8 µg/mL (≈ 16.7 µM)	–
CC[C@H](C)[C@H]1C(=O)N(Cc2ccc(Cl)cc2Cl)C[C@@H]2N(C(=O)NCCCC(F)(F)F)CCC(=O)N12	6.00	32 µg/mL (≈ 59.5 µM)	–
CC[C@H](C)[C@H]1C(=O)N(Cc2cc(Cl)cc(Cl)c2)C[C@@H]2N(C(=O)NCCCC(F)(F)F)CCC(=O)N12	6.11	16 µg/mL (≈ 29.8 µM)	–
C[C@H]1C(=O)N(Cc2cccc3ccccc23)C[C@@H]2N(C(=O)NCc3ccccc3)CCC(=O)N21	5.60	16 µg/mL (≈ 35 µM)	–
CC[C@H]1OC(=O)[C@H](C)[C@@H](O[C@H]2C[C@@](C)(OC)[C@@H](O)[C@H](C)O2)[C@H](C)[C@@H](O[C@@H]2O[C@H](C)C[C@H](N(C)C)[C@H]2O)[C@](C)(O)C[C@@H](C)C(=O)[C@H](C)[C@@H](O)[C@]1(C)O [ERYTHROMYCIN]	–	0.13 µg/mL (≈ 0.177 µM)	MIC (Staphylococcus aureus [3]): > 128 µg/mL; MIC (Staphylococcus aureus [4]): 0.25 µg/mL (≈ 0.341 µM); MIC (Staphylococcus aureus [5]): > 128 µg/mL; MIC (Staphylococcus aureus [6]): > 128 µg/mL; MIC (Staphylococcus aureus [7]): 8 µg/mL (≈ 10.9 µM); MIC (Staphylococcus aureus [8]): > 128 µg/mL; MIC (Staphylococcus aureus [9]): 8 µg/mL (≈ 10.9 µM); MIC (Staphylococcus aureus [10]): 1 µg/mL (≈ 1.36 µM); MIC (Staphylococcus aureus [11]): > 128 µg/mL; MIC (Staphylococcus aureus [12]): > 128 µg/mL
CC[C@H](C)[C@H]1C(=O)N(Cc2cccc3ccccc23)C[C@@H]2N(C(=O)NCC(C)C)CCC(=O)N12	5.42	8 µg/mL (≈ 17.2 µM)	–
CC[C@H](C)[C@H]1C(=O)N(Cc2ccc(Br)c3ccccc23)C[C@@H]2N(C(=O)NCCCC(F)(F)F)CCC(=O)N12	5.71	4 µg/mL (≈ 6.69 µM)	–
CC[C@H](C)[C@H]1C(=O)N(Cc2cccc3ccccc23)C[C@@H]2N(C(=O)NCCc3ccco3)CCC(=O)N12	5.28	> 128 µg/mL	–
CCn1cc(C(=O)O)c(=O)c2cc(F)c(N3CCNCC3)cc21 [NORFLOXACIN]	–	0.25 µg/mL (≈ 0.783 µM)	MIC (Staphylococcus aureus [3]): > 128 µg/mL; MIC (Staphylococcus aureus [4]): > 128 µg/mL; MIC (Staphylococcus aureus [5]): > 128 µg/mL; MIC (Staphylococcus aureus [6]): 64 µg/mL (≈ 200 µM); MIC (Staphylococcus aureus [7]): 16 µg/mL (≈ 50.1 µM); MIC (Staphylococcus aureus [8]): 32 µg/mL (≈ 100 µM); MIC (Staphylococcus aureus [9]): > 128 µg/mL; MIC (Staphylococcus aureus [10]): > 128 µg/mL; MIC (Staphylococcus aureus [11]): > 128 µg/mL; MIC (Staphylococcus aureus [12]): 1 µg/mL (≈ 3.13 µM)
CCCCNC(=O)N1CCC(=O)N2[C@@H]([C@@H](C)CC)C(=O)N(Cc3cccc4ccccc34)C[C@H]12	5.80	2 µg/mL (≈ 4.3 µM)	–
CC[C@H](C)[C@H]1C(=O)N(Cc2ccc(C)c3ccccc23)C[C@@H]2N(C(=O)NCCCC(F)(F)F)CCC(=O)N12	5.82	0.25 µg/mL (≈ 0.469 µM)	–
CCCNC(=O)N1CCC(=O)N2[C@@H]([C@@H](C)CC)C(=O)N(Cc3cccc4ccccc34)C[C@H]12	5.66	16 µg/mL (≈ 35.5 µM)	–
CC[C@H](C)[C@H]1C(=O)N(Cc2cccc3ccccc23)C[C@@H]2N(C(=O)NCCCCl)CCC(=O)N12	5.89	4 µg/mL (≈ 8.25 µM)	–
CC[C@H](C)[C@H]1C(=O)N(Cc2cccc3ccccc23)C[C@@H]2N(C(=O)NCCCCCCl)CCC(=O)N12	< 4.40	> 128 µg/mL	–
CC(C)C[C@H]1C(=O)N(Cc2cccc3ccccc23)C[C@@H]2N(C(=O)NCCCC(F)(F)F)CCC(=O)N21	5.89	4 µg/mL (≈ 7.71 µM)	–
CC[C@H](C)[C@H]1C(=O)N(Cc2cccc3ccccc23)C[C@@H]2N(C(=O)NCCC3CCOC3)CCC(=O)N12 (stereo partly specified)	5.16	128 µg/mL (≈ 253 µM)	–
CCC[C@@H]1C[C@@H](C(=O)N[C@@H]([C@H]2O[C@H](SC)[C@H](O)[C@@H](O)[C@H]2O)[C@H](C)Cl)N(C)C1 [CLINDAMYCIN]	–	0.016 µg/mL (≈ 0.0376 µM)	MIC (Staphylococcus aureus [3]): > 128 µg/mL; MIC (Staphylococcus aureus [4]): 0.016 µg/mL (≈ 0.0376 µM); MIC (Staphylococcus aureus [5]): > 128 µg/mL; MIC (Staphylococcus aureus [6]): 64 µg/mL (≈ 151 µM); MIC (Staphylococcus aureus [7]): 0.008 µg/mL (≈ 0.0188 µM); MIC (Staphylococcus aureus [8]): 128 µg/mL (≈ 301 µM); MIC (Staphylococcus aureus [9]): 0.016 µg/mL (≈ 0.0376 µM); MIC (Staphylococcus aureus [10]): 0.016 µg/mL (≈ 0.0376 µM); MIC (Staphylococcus aureus [11]): 128 µg/mL (≈ 301 µM); MIC (Staphylococcus aureus [12]): 128 µg/mL (≈ 301 µM)
